Measured values from publication PMC8653067 (ChemMedChem, 2021).
Entries after “also recorded” stand apart in the source; their conditions may differ. Read-outs that look alike come from different tables or passages of the source.

Columns and labels:
PLpro from SARS-CoV-2 [1] = molecular target: T1, PLpro from SARS-CoV-2 (Severe acute respiratory syndrome coronavirus 2, UniProt P0DTD1); format: biochemical; details: for IC50: read-out: IC50 (µM) determined using Z-LRGG-AMC as a PLpro substrate
PLpro from SARS-CoV-2 [2] = molecular target: T1, PLpro from SARS-CoV-2; format: biochemical; details: for Extent of PLpro inhibition in IC50 assay (in words): 5 μM Ub-AMC substrate; for IC50: read-out: IC50 (µM) determined using Ub-AMC as a PLpro substrate, 20 nM PLpro, 5 μM Ub-AMC, triplicates
PLpro from SARS-CoV-2 [3] = molecular target: T1, PLpro from SARS-CoV-2; format: biochemical
[4] = molecular target: ubiquitin C-terminal hydrolase L3; details: read-out: reported IC50 for ubiquitin C-terminal hydrolase L3; cited from earlier work
[5] = 20 nM PLpro, 50 μM Z-LRGG-AMC, triplicates
[6] = 200 μM inhibitor, 20 nM PLpro, 50 μM Z-LRGG-AMC
[7] = Z-LRGG-AMC substrate, highest tested concentration 200 μM

Compound	IC50 (PLpro from SARS-CoV-2 [1]; [5]) [µM]	PLpro inhibition in initial screening (PLpro from SARS-CoV-2 [3]; [6])	also measured
N#Cc1nc2c(nc1C#N)-c1ccccc1/C2=N\OCc1ccccc1 [DUB-IN-1]	> 100	–	–
CCO/N=C1\c2ccccc2-c2nc(C#N)c(C#N)nc21 [DUB-IN-2]	–	–	IC50 (PLpro from SARS-CoV-2 [1]): > 100 µM
C=CCO/N=C1\c2ccccc2-c2nc(C#N)c(C#N)nc21 [DUB-IN-3]	–	–	Extent of PLpro inhibition in IC50 assay (in words) (PLpro from SARS-CoV-2 [2]): simple inhibition curve that did not reach its plateau at the highest inhibitor concentration; IC50 (PLpro from SARS-CoV-2 [2]): > 10 µM; Extent of PLpro inhibition in IC50 characterization (in words) (PLpro from SARS-CoV-2 [1]): only partial inhibition of PLpro
CC(=O)O/N=C1\C(=O)N(Cc2cc(Cl)ccc2Cl)c2ccc(Cl)cc21 [LDN-57444]	> 100	inhibited PLpro partially but at significant levels	–
Cc1ccc(S(=O)(=O)Nc2cc(C(F)(F)F)ccc2C(=O)Nc2nc(-c3ccccc3)cs2)cc1 [ML364]	–	significant quenching effects leading to negative signals	Extent of PLpro inhibition in IC50 characterization (in words) (PLpro from SARS-CoV-2 [1]; [7]): did not show strong concentration-dependent inhibition of PLpro
Cc1ccc(/C=C2\CNC/C(=C\c3ccc(C)cc3)C2=O)cc1 [NSC63283]	> 100	–	–
CC(=O)c1cc([N+](=O)[O-])c(Sc2cccc(Cl)c2Cl)s1 [P005091]	> 100	inhibited PLpro partially but at significant levels	–
CC(=O)c1cc([N+](=O)[O-])c(Sc2ccc(F)cc2F)s1 [P22077]	> 100	inhibited PLpro partially but at significant levels	–
N#CSc1cc(SC#N)c(N)nc1N [PR-619]	–	significant quenching effects leading to negative signals	IC50 (PLpro from SARS-CoV-2 [2]): 12.9 ± 2.4 µM; Extent of PLpro inhibition in IC50 characterization (in words) (PLpro from SARS-CoV-2 [1]; [7]): strongly inhibited PLpro at concentrations above 1 μM; also recorded: can fully inhibit PLpro at 200 µM
O=C1c2ccccc2C(=O)c2oc(-c3ccccc3)nc21 [SJB2–043]	–	inhibited PLpro partially but at significant levels	Extent of PLpro inhibition in IC50 assay (in words) (PLpro from SARS-CoV-2 [2]): did not inhibit PLpro completely; IC50 (PLpro from SARS-CoV-2 [2]): 0.091 ± 0.024 µM; Extent of PLpro inhibition in IC50 characterization (in words) (PLpro from SARS-CoV-2 [1]; [7]): only partial inhibition of PLpro; Extent of PLpro inhibition in IC50 characterization (in words) (PLpro from SARS-CoV-2 [1]; Z-LRGG-AMC substrate, highest tested concentration 200 μM, listed as SBJ2–043): can only partially inhibit PLpro
O=C1c2ccccc2C(=O)c2oc(-c3cccnc3)nc21 [SJB3–019A]	8.15 ± 3.59	inhibited PLpro partially but at significant levels	Extent of PLpro inhibition in IC50 characterization (in words) (PLpro from SARS-CoV-2 [1]; [7]): only partial inhibition of PLpro
O=C1CC(=O)c2c(Cl)c(Cl)c(Cl)c(Cl)c21 [TCID]	–	–	IC50 [4]: 0.6 µM; IC50 (PLpro from SARS-CoV-2 [2]): 10.5 ± 2.7 µM; PLpro inhibition in initial screening (PLpro from SARS-CoV-2 [3]): inhibited PLpro activity almost completely; Extent of PLpro inhibition in IC50 characterization (in words) (PLpro from SARS-CoV-2 [1]): can fully inhibit PLpro at 200 µM
C=CC(=O)N1CC/C(=C\c2ccc(F)c([N+](=O)[O-])c2)C(=O)/C(=C/c2ccc(F)c([N+](=O)[O-])c2)C1 [VLX1570]	> 100	–	–
HBX19818	> 100	inhibited PLpro partially but at significant levels	–
